Tests used:
Assay type in all cases: cell-based
[1] = test system: T.b. rhodesiense, strain STIB 900 trypomastigotes; test: In vitro growth inhibition of bloodstream form T. b. rhodesiense trypomastigotes; conditions: for activity designation against T. b. rhodesiense: TDR criteria
[2] = test system: T. cruzi, strain Tulahuen C4 amastigotes; test: In vitro growth inhibition of T. cruzi amastigotes in infected L6 myoblasts
[3] = test system: L. donovani axenic, strain MHOM-ET-67/L82 amastigotes; test: In vitro growth inhibition of axenically cultured L. donovani amastigotes; conditions: for activity designation against L. donovani: TDR criteria
[4] = test system: bloodstream form T. b. brucei parasites, engineered to overexpress type I nitroreductase; test: microbe, parasite or virus in culture; conditions: Trypanosoma brucei, read-out: TbNTR −tet (IC50)
[5] = test system: L6 cells (rat skeletal myoblasts); test: Cytotoxicity in L6 cells; conditions: read-out: L6 IC50 (cytotoxicity)

## O=C(NCCCn1ccnc1[N+](=O)[O-])c1ccc(C(F)(F)F)cc1 [Compound 1]
[1]
  activity designation against T. b. rhodesiense: inactive

## O=C(NCCCn1ccnc1[N+](=O)[O-])c1ccc(OC(F)(F)F)cc1 [Compound 2, N-[3-(2-Nitro-1H-imidazol-1-yl)propyl]-4-(trifluoromethoxy)benzamide]
[1]
  activity designation against T. b. rhodesiense: inactive

## O=C(NCCCCn1cnc([N+](=O)[O-])n1)c1ccc(OC(F)(F)F)cc1 [Compound 6, N-[4-(3-Nitro-1H-1,2,4-triazol-1-yl)butyl]-4-(trifluoromethoxy)benzamide]
[2]; ratio IC50 in L6 cells/IC50 in T. cruzi
  SI (T. cruzi): >2381

## O=C(NCCCn1cnc([N+](=O)[O-])n1)c1cc(C(F)(F)F)cc(C(F)(F)F)c1 [Compound 8, N-[3-(3-Nitro-1H-1,2,4-triazol-1-yl)propyl]-3,5-bis(trifluoromethyl)benzamide]
[1]
  activity designation against T. b. rhodesiense: inactivity

## O=C(NCCCn1cnc([N+](=O)[O-])n1)c1ccc(C(F)(F)F)nc1 [Compound 9, N-[3-(3-Nitro-1H-1,2,4-triazol-1-yl)propyl]-6-(trifluoromethyl)pyridine-3-carboxamide]
[1]
  activity designation against T. b. rhodesiense: moderate activity

## O=C(NCCCn1cnc([N+](=O)[O-])n1)c1cnc2ccccc2n1 [Compound 12, N-[3-(3-Nitro-1H-1,2,4-triazol-1-yl)propyl]quinoxaline-2-carboxamide]
[1]
  activity designation against T. b. rhodesiense: complete inactivity

## O=C(NCCCn1cnc([N+](=O)[O-])n1)c1ccc(-c2ccccc2)cc1 [Compound 13, N-[3-(3-Nitro-1H-1,2,4-triazol-1-yl)propyl]-4-phenylbenzamide]
[1]
  activity designation against T. b. rhodesiense: moderately active (IC50 = 0.5–6.0 μM)

## Cc1ccc2nc(NC(=O)Cn3cnc([N+](=O)[O-])n3)sc2c1 [Compound 17, N-(6-methyl-1,3-benzothiazol-2-yl)-2-(3-nitro-1H-1,2,4-triazol-1-yl)acetamide]
[3]
  activity designation against L. donovani: moderately active (IC50 = 1.0–6.0 μM)
[1]
  activity designation against T. b. rhodesiense: inactive

## O=C(Cn1cnc([N+](=O)[O-])n1)Nc1nc2ccc(Cl)cc2s1 [Compound 18, N-(6-chloro-1,3-benzothiazol-2-yl)-2-(3-nitro-1H-1,2,4-triazol-1-yl)acetamide]
[3]
  activity designation against L. donovani: moderately active (IC50 = 1.0–6.0 μM)
[1]
  activity designation against T. b. rhodesiense: inactive

## O=C(Cn1cnc([N+](=O)[O-])n1)Nc1nc2cc(Cl)ccc2o1 [Compound 19, N-(5-chloro-1,3-benzoxazol-2-yl)-2-(3-nitro-1H-1,2,4-triazol-1-yl)acetamide]
[1]
  activity designation against T. b. rhodesiense: inactive

## O=[N+]([O-])c1nccn1CCCNS(=O)(=O)c1ccc(C(F)(F)F)cc1 [Compound 21, N-[3-(2-Nitro-1H-imidazol-1-yl)propyl]-4-(trifluoromethyl)benzene-1-sulfonamide]
[1]
  activity designation against T. b. rhodesiense: inactive

## O=[N+]([O-])c1ncn(CCCNS(=O)(=O)c2cc(C(F)(F)F)ccc2C(F)(F)F)n1 [Compound 25, N-[3-(3-Nitro-1H-1,2,4-triazol-1-yl)propyl]-2,5-bis(trifluoromethyl)benzene-1-sulfonamide]
[1]
  activity designation against T. b. rhodesiense: inactivity

## O=[N+]([O-])c1ncn(CCNS(=O)(=O)c2cc(C(F)(F)F)cc(C(F)(F)F)c2)n1 [Compound 26, N-[2-(3-nitro-1H-1,2,4-triazol-1-yl)ethyl]-3,5-bis(trifluoromethyl)benzene-1-sulfonamide]
[1]
  activity designation against T. b. rhodesiense: inactivity

## O=[N+]([O-])c1ncn(CCCNS(=O)(=O)c2cc(C(F)(F)F)cc(C(F)(F)F)c2)n1 [Compound 27, N-[3-(3-nitro-1H-1,2,4-triazol-1-yl)propyl]-3,5-bis(trifluoromethyl)benzene-1-sulfonamide]
[1]
  activity designation against T. b. rhodesiense: inactivity

## Cc1ccc(S(=O)(=O)NCCCn2cnc([N+](=O)[O-])n2)cc1 [Compound 28, 4-Methyl-N-[3-(3-nitro-1H-1,2,4-triazol-1-yl)propyl]benzene-1-sulfonamide]
[3]; ratio IC50 in L6 cells/IC50 in L. donovani
  SI (L.don. ax.): >8.1

## O=[N+]([O-])c1ncn(CCNS(=O)(=O)Cc2ccccc2)n1 [Compound 30, N-[2-(3-Nitro-1H-1,2,4-triazol-1-yl)ethyl]-1-phenylmethanesulfonamide]
[2]; TDR criteria
  activity designation against T. cruzi: moderately active (IC50 = 4.0–60 μM)

## Nc1nc(N)nc(Nc2ccc([As]3SCC(CO)S3)cc2)n1 (stereo not drawn) [Melars., Melarsoprol, reference compound]
[1]; Trypanosoma brucei, RHODESIENSE|STIB900, read-out: T.b.rhod. IC50
  IC50: 12 nM

## CC1CS(=O)(=O)CCN1/N=C/c1ccc([N+](=O)[O-])o1 (stereo not drawn) [Nfx, 4-(5-nitrofurfurylidenamino)-3-methylthio-morpholine-1,1-dioxide]
[4]
  IC50: 1710 ± 60 nM

## Podophylotoxin [Podoph.]
[5]
  IC50: 22 nM

Reference: article PMC3375360 (Journal of Medicinal Chemistry, 2012)
